SMILES strings stand for the structures. pIC50: −log10 of the molar value.

For one assay, the target named is T1, TRPC5 (Homo sapiens, UniProt Q9UL62).
T1 construct: expressed in transfected cells; host or cells: HEK 293
T1 sequence (Q9UL62 1-973): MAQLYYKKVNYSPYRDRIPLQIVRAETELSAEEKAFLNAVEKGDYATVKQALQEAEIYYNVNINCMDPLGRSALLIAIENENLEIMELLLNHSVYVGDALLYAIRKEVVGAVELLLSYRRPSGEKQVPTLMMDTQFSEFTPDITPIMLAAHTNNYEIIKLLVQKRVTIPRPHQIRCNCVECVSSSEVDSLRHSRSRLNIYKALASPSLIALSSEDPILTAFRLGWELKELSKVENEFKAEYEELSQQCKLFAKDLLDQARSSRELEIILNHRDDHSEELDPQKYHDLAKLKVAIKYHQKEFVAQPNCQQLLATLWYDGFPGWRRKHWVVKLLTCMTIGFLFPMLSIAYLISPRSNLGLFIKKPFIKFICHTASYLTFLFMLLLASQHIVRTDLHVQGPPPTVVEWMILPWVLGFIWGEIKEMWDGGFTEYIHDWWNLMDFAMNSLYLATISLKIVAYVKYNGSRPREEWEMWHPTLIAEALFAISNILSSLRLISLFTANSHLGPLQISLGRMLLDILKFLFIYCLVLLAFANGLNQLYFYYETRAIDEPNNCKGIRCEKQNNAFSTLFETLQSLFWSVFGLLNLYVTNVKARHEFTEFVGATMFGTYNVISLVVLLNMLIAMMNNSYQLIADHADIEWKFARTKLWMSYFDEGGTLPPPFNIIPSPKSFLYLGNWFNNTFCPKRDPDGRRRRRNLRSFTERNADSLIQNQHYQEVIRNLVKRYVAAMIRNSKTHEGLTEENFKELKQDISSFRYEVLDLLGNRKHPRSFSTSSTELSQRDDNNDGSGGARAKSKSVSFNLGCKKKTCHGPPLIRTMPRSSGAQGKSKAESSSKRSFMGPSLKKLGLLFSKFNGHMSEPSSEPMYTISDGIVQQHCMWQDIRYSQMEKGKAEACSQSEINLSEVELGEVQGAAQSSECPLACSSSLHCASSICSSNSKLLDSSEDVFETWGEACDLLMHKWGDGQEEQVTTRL
The experiment in a line: TRPC5 automated patch clamp assay (Qpatch), current block after rosiglitazone stimulation. It is filed as cell-based. The conditions noted are these: Table 4; HEK293 cells overexpressing TRPC5; rosiglitazone stimulation; 80 mV; read-out: TRPC5_QP_ XC50_80. Summed up:
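HEK 293 cells expressing human TRPC5, whole-cell QPatch recording; 1 μM buffered free internal Ca2+, external pH 7.4. Ramps −100 to +100 mV over 300 ms every 10 s from −60 mV holding; channel activated by Rosiglitazone (30 uM) after ≥60 s control. IC50 from Hill fit.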
(In general: In patch-clamp work, channel activity is measured electrically.)
As for `C=Cc1c(N2CCN(Cc3ccccc3C)C(=O)C2)cn[nH]c1=O`, the pIC50 is 5.30 to 6.00.

With `C[C@@H]1CN(CC(=O)N(C)C)CCN1c1cn[nH]c(=O)c1Cl`, the pIC50 was 3.30 to 5.00.

`CCN(CC)C(=O)CN1CCN(c2cn[nH]c(=O)c2Cl)CC1`: the pIC50 was 3.30 to 5.00.

For `Cc1ccncc1CN1CCN(c2cn[nH]c(=O)c2Cl)CC1`, the pIC50 was 5.00 to 5.30.

In the case of `O=c1[nH]ncc(N2CCN(Cc3ccccc3C(F)(F)F)CC2)c1Cl` [drawing 699], the pIC50 was 5.30 to 6.00.

For the molecule `O=c1[nH]ncc(N2CCN(Cc3cccc4cn[nH]c34)CC2)c1Cl`, the pIC50 is 3.30 to 5.00.

As to `O=C1CN(c2cn[nH]c(=O)c2Cl)CCN1Cc1ccccc1-c1ccccc1`, the pIC50 is 5.30 to 6.00.

As to `Cc1ccccc1CN1CCN(c2cn[nH]c(=O)c2C(C)C)CC1=O`, the pIC50 was 5.30 to 6.00.

Regarding `Cc1cc(F)ccc1CN1CCN(c2cn[nH]c(=O)c2Cl)C(C)C1` (stereo not shown), the pIC50 is 5.30 to 6.00.

Regarding `O=c1[nH]ncc(Cl)c1N1CCN(Cc2ccccc2OC(F)(F)F)CC1`, the pIC50 was 5.00 to 5.30.

Consider `CC(C)=Cc1c(N2CCN(Cc3ccccc3C)C(=O)C2)cn[nH]c1=O`, for which the pIC50 was 3.30 to 5.00.

The assay is the same for the next values; noted with them: Table 4; HEK293 cells overexpressing TRPC5; rosiglitazone stimulation; 100 mV; read-out: TRPC5_QP_ XC50_100.
For the molecule `C=Cc1c(N2CCN(Cc3ccccc3C)C(=O)C2)cn[nH]c1=O`, the pIC50 was 5.30 to 6.00.

As for `C[C@@H]1CN(CC(=O)N(C)C)CCN1c1cn[nH]c(=O)c1Cl`, the pIC50 was 3.30 to 5.00.

In the case of `CCN(CC)C(=O)CN1CCN(c2cn[nH]c(=O)c2Cl)CC1`, the pIC50 was 3.30 to 5.00.

Regarding `Cc1ccncc1CN1CCN(c2cn[nH]c(=O)c2Cl)CC1`, the pIC50 was 5.00 to 5.30.

For `O=c1[nH]ncc(N2CCN(Cc3ccccc3C(F)(F)F)CC2)c1Cl` [drawing 699], the pIC50 was 5.30 to 6.00.

Regarding `O=c1[nH]ncc(N2CCN(Cc3cccc4cn[nH]c34)CC2)c1Cl`, the pIC50 is 3.30 to 5.00.

With `O=C1CN(c2cn[nH]c(=O)c2Cl)CCN1Cc1ccccc1-c1ccccc1`, the pIC50 is 5.30 to 6.00.

Consider `Cc1ccccc1CN1CCN(c2cn[nH]c(=O)c2C(C)C)CC1=O`, for which the pIC50 is 5.30 to 6.00.

Consider `Cc1cc(F)ccc1CN1CCN(c2cn[nH]c(=O)c2Cl)C(C)C1` (stereo not shown), for which the pIC50 was 5.30 to 6.00.

For the molecule `O=c1[nH]ncc(Cl)c1N1CCN(Cc2ccccc2OC(F)(F)F)CC1`, the pIC50 was 5.00 to 5.30.

In the case of `CC(C)=Cc1c(N2CCN(Cc3ccccc3C)C(=O)C2)cn[nH]c1=O`, the pIC50 is 3.30 to 5.00.

Still in this assay, the particulars now being: Table 5; HEK293 cells overexpressing TRPC5; rosiglitazone stimulation; 80 mV; read-out: TRPC5_QP_ XC50_80.
Turning to `O=C1CN(c2cn[nH]c(=O)c2Cl)CCN1Cc1ccc(OC(F)(F)F)cc1F`, the pIC50 was 5.00 to 5.30.

With `Cc1cc(N2CCN(Cc3ccc(F)cc3C)C(=O)C2)c(=O)[nH]n1`, the pIC50 is 3.30 to 5.00.

With `O=C1CN(c2cn[nH]c(=O)c2Cl)CCN1Cc1ccc(F)cc1C(F)(F)F`, the pIC50 is 6.00 to 11.00.

Take `O=C1CN(c2c(Cl)cn[nH]c2=O)CCN1Cc1ccccc1OC(F)(F)F`: the pIC50 is 3.30 to 5.00.

On to `Cc1ncccc1CN1CCN(c2cn[nH]c(=O)c2Cl)CC1=O`, for which the pIC50 is 3.30 to 5.00.

In the case of `Cc1ccccc1Cn1cnc2c1CN(c1cn[nH]c(=O)c1Cl)CC2`, the pIC50 is 3.30 to 5.00.

Consider `Cc1n[nH]c(=O)c(Cl)c1N1CCN(Cc2ccccc2C(F)(F)F)C(=O)C1`, for which the pIC50 is 5.00 to 5.30.

`CCCOc1n[nH]c(=O)cc1N1CCN(Cc2ccc(F)cc2C)CC1`: the pIC50 was 3.30 to 5.00.

For `CC[C@@H](c1ccccc1)N1CCN(c2cn[nH]c(=O)c2Cl)CC1`, the pIC50 was 5.30 to 6.00.

Take `O=c1[nH]ncc(N2CCc3c(ncn3Cc3ccccc3)C2)c1Cl` [drawing 831]: the pIC50 is 5.30 to 6.00.

In the case of `Cc1ccccc1N1CCN(c2cn[nH]c(=O)c2Cl)CC1`, the pIC50 was 5.30 to 6.00.

Take `O=C1CN(c2cn[nH]c(=O)c2Cl)CCN1Cc1ccc(OC(F)(F)F)cc1`: the pIC50 is 5.30 to 6.00.

For `CCc1cn[nH]c(=O)c1N1CCN(Cc2ccc(F)cc2C)CC1`, the pIC50 was 5.30 to 6.00.

For `O=C1CN(c2cn[nH]c(=O)c2C(F)(F)F)CCN1Cc1ccccc1C(F)(F)F`, the pIC50 is 5.30 to 6.00.

Consider `Cc1cc(F)ccc1CN1CCN(c2c(C)cn[nH]c2=O)CC1`, for which the pIC50 is 5.30 to 6.00.

The same assay, now with this note: Table 5; HEK293 cells overexpressing TRPC5; rosiglitazone stimulation; 100 mV; read-out: TRPC5_QP_ XC50_100.
As to `O=C1CN(c2cn[nH]c(=O)c2Cl)CCN1Cc1ccc(OC(F)(F)F)cc1F`, the pIC50 is 5.00 to 5.30.

For the molecule `Cc1cc(N2CCN(Cc3ccc(F)cc3C)C(=O)C2)c(=O)[nH]n1`, the pIC50 is 3.30 to 5.00.

In the case of `O=C1CN(c2cn[nH]c(=O)c2Cl)CCN1Cc1ccc(F)cc1C(F)(F)F`, the pIC50 was 6.00 to 11.00.

As to `O=C1CN(c2c(Cl)cn[nH]c2=O)CCN1Cc1ccccc1OC(F)(F)F`, the pIC50 was 3.30 to 5.00.

Take `Cc1ncccc1CN1CCN(c2cn[nH]c(=O)c2Cl)CC1=O`: the pIC50 was 3.30 to 5.00.

`Cc1ccccc1Cn1cnc2c1CN(c1cn[nH]c(=O)c1Cl)CC2`: the pIC50 was 3.30 to 5.00.

As to `Cc1n[nH]c(=O)c(Cl)c1N1CCN(Cc2ccccc2C(F)(F)F)C(=O)C1`, the pIC50 was 5.00 to 5.30.

For the molecule `CCCOc1n[nH]c(=O)cc1N1CCN(Cc2ccc(F)cc2C)CC1`, the pIC50 was 3.30 to 5.00.

For `CC[C@@H](c1ccccc1)N1CCN(c2cn[nH]c(=O)c2Cl)CC1`, the pIC50 is 5.30 to 6.00.

As to `O=c1[nH]ncc(N2CCc3c(ncn3Cc3ccccc3)C2)c1Cl` [drawing 831], the pIC50 was 5.30 to 6.00.

Consider `Cc1ccccc1N1CCN(c2cn[nH]c(=O)c2Cl)CC1`, for which the pIC50 was 5.30 to 6.00.

For `O=C1CN(c2cn[nH]c(=O)c2Cl)CCN1Cc1ccc(OC(F)(F)F)cc1`, the pIC50 is 5.30 to 6.00.

On to `CCc1cn[nH]c(=O)c1N1CCN(Cc2ccc(F)cc2C)CC1`, for which the pIC50 is 5.30 to 6.00.

As for `O=C1CN(c2cn[nH]c(=O)c2C(F)(F)F)CCN1Cc1ccccc1C(F)(F)F`, the pIC50 was 5.30 to 6.00.

For `Cc1cc(F)ccc1CN1CCN(c2c(C)cn[nH]c2=O)CC1`, the pIC50 is 5.30 to 6.00.

Values taken from patent US20260184708A1, “PYRIDAZINONES AND METHODS OF USE THEREOF” (GFB (ABC), LLC, priority 2017, published 2026).
